# Values quoted from earlier work in patent publication US20130267562A1, “ACTIVE ENANTIOMER OF DODECYL 2-(N,N-DIMETHYLAMINO)-PROPIONATE” (NEXMED HOLDINGS, INC, priority 2010, published 2013).
smiles,measurement,setting,value
"CCCCCCCCCCCCOC(=O)C(C)N(C)C (racemic) [Racemic DDAIP, dodecyl 2-methyl-2-(N,N-dimethylamino)acetate]",miscibility with organic solvents,most organic solvents,miscible with most organic solvents
same,solubility in water,water,not soluble
